Results as given in article PMC3930514, “Deletion of Ubiquitin Fold Modifier Protein Ufm1 Processing Peptidase Ufsp in L. donovani Abolishes Ufm1 Processing and Alters Pathogenesis” (PLoS Neglected Tropical Diseases, 2014).

Columns and labels:
[1] = target: T1, LdUfsp (recombinant Ufsp, rLdUfsp) (Leishmania donovani, UniProt E9BRI1); assay: FRET cleavage assay with YFP-Ufm1-ECFP; assay type: biochemical; conditions: 0.1, 1, 10 µg/ml; 250 nM substrate; pH 7.5, 37 °C, 60 min
T1 construct: gene LdCL_340047700; partial ORF 427-1518 bp (about codons 143-506) in pEXP5-CT-Topo, E. coli BL21-pLysS, native purification; 43 and 39 kDa bands; L. infantum homolog is LinJ.34.3830

[2] = target: T1, LdUfsp (recombinant Ufsp, rLdUfsp); assay: biolayer interferometry (Octet, streptavidin sensor); assay type: binding; conditions: biotinylated protein immobilised

T1 sequence (E9BRI1 entry or part of it): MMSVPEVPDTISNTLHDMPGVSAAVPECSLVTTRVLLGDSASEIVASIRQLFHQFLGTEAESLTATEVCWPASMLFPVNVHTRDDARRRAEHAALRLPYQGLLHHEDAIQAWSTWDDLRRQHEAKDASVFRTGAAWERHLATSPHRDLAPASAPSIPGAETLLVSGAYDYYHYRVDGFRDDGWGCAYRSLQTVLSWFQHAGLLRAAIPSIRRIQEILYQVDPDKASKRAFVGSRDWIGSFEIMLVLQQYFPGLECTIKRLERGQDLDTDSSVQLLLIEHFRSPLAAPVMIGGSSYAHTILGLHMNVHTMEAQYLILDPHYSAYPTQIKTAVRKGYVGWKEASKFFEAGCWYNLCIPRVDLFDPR

For C[C@@H]1[C@H](O)[C@@H](C)/C=C/C=C/C=C/C=C/C=C/C=C/C=C/[C@H](O[C@@H]2O[C@H](C)[C@@H](O)[C@H](N)[C@@H]2O)C[C@@H]2O[C@](O)(C[C@@H](O)C[C@@H](O)[C@H](O)CC[C@@H](O)C[C@@H](O)CC(=O)O[C@H]1C)C[C@H](O)[C@H]2C(=O)O [Amphotericin B], the “% Ufm1 processing activity (Δ530, % of 20 mM N-ethyl maleimide)” value [1] was “Amphotericin B showed inhibitory effects on the Ufm1 processing activity” and the “biolayer interferometry (Octet, streptavidin sensor)” value [2] was “Results showed that Amphotericin B can bind to the biotinylated Ufsp protein”.
